Results as given in patent US20220096529A1, “2-HYDROXYPROPYL-BETA-CYCLODEXTRIN (HPBETACD) FOR USE IN THE TREATMENT OF BREAST CANCER” (UNIVERSITY OF THE WITWATERSRAND, JOHANNESBURG, priority 2019, published 2022).

Key:
MDA-MB-231 cells [1] = experiment: RT2 Profiler PCR Array Human Breast cancer; type: cell-based
From the text: (§1) PCR (polymerase chain reaction) arrays were run to identify gene expression changes in cancer cells after treatment with HPβCD. The differentially expressed genes along with their significance for cancer, some genes were selected for further drug-protein interaction studies.

MCF7 cells [2] = experiment: RT2 Profiler PCR Array Human Breast cancer; type: cell-based
From the text: as §1

MDA-MB-231 cells [3] = experiment: Cell-APOPercentage apoptosis assay; type: cell-based, human; conditions: 24 hrs
Description: (§2) APOPercentage assays gives a measure of overall apoptosis in the cell. Apoptosis is an early event and therefore just one time point (24 hrs) was selected and tested on four cell lines MCF7, MDA-MB-231, MRC-5 & HEK-293 cells. 10 μM Plumbagin was used a positive control as opposed to 40 μM from MTT because higher concentrations of plumbagin was way too toxic for the cells and to capture the early activity, optimal dosage was required. To confirm the growth inhibition obtained from the MTT assay was actually due to apoptosis, a Cell-APOPercentage Apoptosis assay was performed according to known methods.

HEK-293 cells [4] = experiment: Cell-APOPercentage apoptosis assay; type: cell-based, human; conditions: 24 hrs
Description: as §2

MCF7 cells [5] = experiment: Cell-APOPercentage apoptosis assay; type: cell-based, human; conditions: MCF7, 10 mM HPβCD, 24 hrs
Description: as §2

MRC-5 cells [6] = experiment: Cell-APOPercentage apoptosis assay; type: cell-based, human; conditions: 24 hrs
Description: as §2

MDA-MB-231 cells [7] = experiment: Mitochondrial outer membrane potential assay (MOMP); type: cell-based, human; conditions: MDA-MB-231, 10 mM, 24 hrs
Description: (§3) One of the key hallmarks of apoptosis is the loss of mitochondrial membrane potential. To investigate that aspect we did a MOMP assay which validates our Cell-APOPercentage assay. This assay was tested on three cell lines MCF7, MDA-MB-231 & MRC-5. The top right and bottom hand quadrants of each plot represents healthy (FL2-A) and apoptotic (FL1-A) cells respectively (see FIGS. 13 to 15).
(§4) From the results obtained from MTT (IC50 values) and Cell-APOPercentage assays it was quite evident that ˜10 mM HPβCD caused cellular growth inhibition through apoptosis in cancer cells and had little or no effect in normal cells. Therefore, we selected just 10 mM HPβCD going forward as the only working concentration for HPβCD treatment. 24 hrs time point was selected (HPβCD & 10 mM H2O2) because mitochondrial membrane potential loss is an early cellular event.

MCF7 cells [8] = experiment: as above; type: cell-based, human; conditions: MCF7, 10 mM, 24 hrs
Description: as §3, §4

MRC-5 cells [9] = experiment: as above; type: cell-based, human; conditions: MRC-5, 10 mM HPβCD, 24 hrs
Description: as §3, §4

MDA-MB-231 cells [10] = experiment: Cholesterol quantification assay; type: cell-based, human; conditions: MDA-MB-231, all concentrations 1, 5, 10, 20, 50 mM
Description: (§5) To investigate if the apoptosis observed from all the above assays was due to cholesterol depletion, a cholesterol assay was performed on all three cell lines: MCF7, MDA-MB-231 and MRC-5. HPβCD and the positive PL, a known cholesterol depletor were treated for 24 hrs.
(§6) HPβCD and the positive (40 μM PL) were treated for 24 hrs. This assay gave us an estimate of total cholesterol, cholesterol esters and free cholesterol.

MCF7 cells [11] = experiment: Cholesterol quantification assay; type: cell-based, human; conditions: MCF7, all concentrations 1, 5, 10, 20, 50 mM
Description: as §5, §6

MRC-5 cells [12] = experiment: Cholesterol quantification assay; type: cell-based, human
Description: as §5, §6

HEK-293 cells [13] = experiment: Caspase 3/7 assay; type: cell-based, human; conditions: HEK-293, 10 mM HPβCD, 24 hrs
Description: The final step in apoptosis following the intrinsic pathway is the activation of executioner caspases like caspase 3 and caspase 7 […]. Therefore, to confirm that cell death was due to the mitochondrial mediated pathway of apoptosis a Caspase 3/7 assay was conducted. Caspases are activated in response to a myriad of cellular death stimuli and they dismantle the cell. Caspase 3 and caspase 7 contribute to the majority of proteolytic cleavage occurring in apoptosis. As a final step to confirm and validate apoptosis via the mitochondrial intrinsic pathway, the Caspase 3/7 assay was conducted on three cell lines: MCF7, MDA-MB-231 & HEK-293. HPβCD and positive (40 μM PL) were treated for 24 hrs. The percentage of dead/apoptotic cells are clearly indicated in specific corners of each quadrants in the above plots.

MDA-MB-231 cells [14] = experiment: RT2 Profiler PCR Array Human Lipoprotein Signaling & Cholesterol Metabolism; type: cell-based
From the text: as §1
(§7) Results from RT^2 Profiler™ PCR Array Human Lipoprotein Signaling & Cholesterol Metabolism (MCF7 and MDA-MB-231) are shown in FIG. 38.

MCF7 cells [15] = experiment: as above; type: cell-based; conditions: MCF7, majority of genes
From the text: as §1, §7

MDA-MB-231 cells [16] = experiment: MTT growth inhibition assay; type: cell-based, human
Description: (§8) Cells were cultured in appropriate medium supplemented with 10% FCS, penicillin (100 U/ml), and streptomycin (100 μg/ml) (Gibco) at 5% CO2 in a 37° C. incubator.
(§9) Four different cell lines were used MCF7 (ER+). MDA-MB-231 (ER−), MRC-5 (Lung Fibroblasts) and HEK-293 (Embryonic kidney). MRC-5 and/or HEK-293 were used as control cell lines depending on availability.
(§10) In order to determine whether HPβCD has the ability to induce cancer cell death a primary screening using an MTT assay was performed. Three different time points 24 hrs.

MCF7 cells [17] = experiment: MTT growth inhibition assay; type: cell-based, human
Description: as §8, §9, §10

What does the source list for 2-hydroxypropyl-β-cyclodextrin [HPβCD]?
ADAM23 gene expression (MDA-MB-231 cells [1]): upregulated; Akt1 gene expression (MDA-MB-231 cells [1]): upregulated; CTSD gene expression (MDA-MB-231 cells [1]): upregulated; GATA3 gene expression (MDA-MB-231 cells [1]): downregulated; SFRP1 gene expression (MDA-MB-231 cells [1]): upregulated; ADAM23 gene expression (MCF7 cells [2]): downregulated by many folds; CTSD gene expression (MCF7 cells [2]): significantly downregulated; cell death (apoptosis) (MDA-MB-231 cells [3]; MDA-MB-231, 10 mM HPβCD): around 40%; maximum cell death (apoptosis) (MDA-MB-231 cells [3]; MDA-MB-231, 50 mM HPβCD): ~70%; cell death (apoptosis) (HEK-293 cells [4]; HEK-293, 20 mM HPβCD): ~15%; cell death (apoptosis) (HEK-293 cells [4]; HEK-293, 50 mM HPβCD): ~18%; cell death (apoptosis) (HEK-293 cells [4]; HEK-293, till 10 mM HPβCD): almost zero percentage cell death; cell death (apoptosis) (MCF7 cells [5]): around 45%; cell death (apoptosis) (MRC-5 cells [6]; MRC-5, 20 mM HPβCD): ~15%; cell death (apoptosis) (MRC-5 cells [6]; MRC-5, 50 mM HPβCD): ~18%; cell death (apoptosis) (MRC-5 cells [6]; MRC-5, till 10 mM HPβCD): almost zero percentage cell death; apoptotic cells / cell death (loss of mitochondrial membrane potential) (MDA-MB-231 cells [7]): 78.1%; apoptotic population (loss of mitochondrial membrane potential) (MCF7 cells [8]): 92.1%; apoptotic cells (MRC-5 cells [9]): 12.8%; non-apoptotic/healthy population (MRC-5 cells [9]): 98.2%; total cholesterol content compared to untreated (MDA-MB-231 cells [10]): reduced total cholesterol content; total cholesterol content compared to untreated (MCF7 cells [11]): reduced total cholesterol content; total cholesterol reduction compared to untreated (MRC-5 cells [12]; MRC-5, 10 mM HPβCD, 24 hrs): more than 50%; total cholesterol content compared to untreated (MRC-5 cells [12]; MRC-5, all concentrations 1, 5, 10, 20, 50 mM): reduced total cholesterol content; Total Live (caspase 3/7) (HEK-293 cells [13]): 66.75%; ABCA1 gene expression (MDA-MB-231 cells [14]; MDA-MB-231, HPβCD treated): upregulation; genes involved in cholesterol related pathways (MDA-MB-231 cells [14]; MDA-MB-231, majority of genes): downregulated; genes involved in cholesterol related pathways (MCF7 cells [15]): downregulated; growth inhibition (MDA-MB-231 cells [16]; MDA-MB-231, 10 mM HPβCD, all three time points): ~45%; IC50 (MDA-MB-231 cells [16]; MDA-MB-231, 24 hrs): 12.3 mM; IC50 (MDA-MB-231 cells [16]; MDA-MB-231, 48 hrs): 11.2 mM; IC50 (MDA-MB-231 cells [16]; MDA-MB-231, 72 hrs): 8.56 mM; growth inhibition (MCF7 cells [17]; MCF7, 10 mM HPβCD, all three time points (24, 48, 72 hrs)): ~45%; IC50 (MCF7 cells [17]; MCF7, 24 hrs): 11.1 mM; IC50 (MCF7 cells [17]; MCF7, 48 hrs): 9.82 mM; IC50 (MCF7 cells [17]; MCF7, 72 hrs): 7.45 mM
